How the values were obtained:
[1] = target: T1, BAF3 FL KIT EX11DEL/V654A (Homo sapiens, UniProt P10721, V654A, cells depend on it, form not given); assay: c-Kit assay: Ba/F3 KIT mutant cell viability (Cell Titer-Glo, 72 hours); assay type: cell-based; settings: viability after 72 hours
T1 construct: BAF3 FL KIT EX11DEL/V654A
Experimental: (§1) Generation of DBa/F3 KIT Mutant Engineered Cell Lines
(§2) KIT cDNAs were synthesized by GenScript and cloned into the pLVX-IRES-Puro vector (Clontech). Viral particles were produced by transfecting pLVX-IRES-puro vectors containing KIT mutant genes into HEK293 cells (Invitrogen) using the Trans-Lentiviral ORF Packaging Kit (Thermo Scientific). 48 hours post-transfection, virus-containing supernatants were harvested and incubated for another 48-72 hours with parental Ba/F3 cells (DSMZ) in the presence of 10 ng/mL IL-3 (R&D Systems). Transduced Ba/F3 cells were then selected by IL-3 withdrawal and puromycin (0.5-1 μg/mL, Invitrogen).
(§3) Cell lines (e.g., EX11DEL, EX11DEL/D816H, EX11DEL/T670I, and EX11DEL/V654A) were plated into 384 well plates using RPMI 1640 supplemented with 10% FBS at densities that produced linear growth and incubated at 37° C. in 5% (v/v) CO2. Cells were treated with eight concentrations of compound over a 4-fold dilution (10 μM to 0.61 nM) and viability was assessed using Cell Titer-Glo assay (Promega) after 72 hours. Data were plotted as percent viability relative to vehicle-treated cells. Dose-responses curves were generated and used to calculate IC50 values.

BAF3 FL KIT EX11DEL = target: T2, BAF3 FL KIT EX11DEL (Homo sapiens, UniProt P10721, cells depend on it, form not given); assay: as above; assay type: cell-based; settings: viability after 72 hours
T2 construct: BAF3 FL KIT EX11DEL
T2 sequence (P10721 with tags, fused parts or gaps DEL557-558): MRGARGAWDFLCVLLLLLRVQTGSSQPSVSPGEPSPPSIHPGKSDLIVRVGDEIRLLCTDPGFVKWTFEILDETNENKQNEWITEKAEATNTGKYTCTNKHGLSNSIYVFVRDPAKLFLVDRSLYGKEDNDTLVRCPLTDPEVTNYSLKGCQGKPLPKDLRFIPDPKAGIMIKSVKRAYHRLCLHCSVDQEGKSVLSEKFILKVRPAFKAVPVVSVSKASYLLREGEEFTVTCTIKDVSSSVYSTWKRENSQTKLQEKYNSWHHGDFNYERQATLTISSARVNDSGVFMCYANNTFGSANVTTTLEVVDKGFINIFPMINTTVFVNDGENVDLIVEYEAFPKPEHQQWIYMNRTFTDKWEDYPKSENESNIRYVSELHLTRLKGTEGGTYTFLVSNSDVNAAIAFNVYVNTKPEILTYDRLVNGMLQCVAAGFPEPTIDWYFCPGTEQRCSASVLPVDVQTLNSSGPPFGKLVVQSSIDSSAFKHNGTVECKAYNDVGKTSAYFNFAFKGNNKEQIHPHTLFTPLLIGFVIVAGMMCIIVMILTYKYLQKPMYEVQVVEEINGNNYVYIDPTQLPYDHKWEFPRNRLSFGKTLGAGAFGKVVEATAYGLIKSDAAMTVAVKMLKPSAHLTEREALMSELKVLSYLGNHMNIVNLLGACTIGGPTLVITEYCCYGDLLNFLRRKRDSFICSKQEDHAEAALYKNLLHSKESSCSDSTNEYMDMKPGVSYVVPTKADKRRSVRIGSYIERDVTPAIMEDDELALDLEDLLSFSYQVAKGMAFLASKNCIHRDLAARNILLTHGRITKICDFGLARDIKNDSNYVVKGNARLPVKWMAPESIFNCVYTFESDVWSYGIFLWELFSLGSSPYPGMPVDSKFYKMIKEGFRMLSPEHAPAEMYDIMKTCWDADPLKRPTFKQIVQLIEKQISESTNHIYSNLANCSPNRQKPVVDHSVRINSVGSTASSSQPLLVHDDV
Experimental: as §1, §2, §3

[2] = target: T3, BAF3 FL KIT EX11DEL/T670I (Homo sapiens, UniProt P10721, T670I, cells depend on it, form not given); assay: as above; assay type: cell-based; settings: viability after 72 hours
T3 construct: BAF3 FL KIT EX11DEL/T670I
T3 sequence (P10721 with tags, fused parts or gaps DEL557-558/T670I, form open): as the sequence (P10721 with tags, fused parts or gaps DEL557-558) above, with T668I counted along it
Experimental: as §1, §2, §3

[3] = target: T4, BAF3 FL KIT EX11DEL/D816H (Homo sapiens, UniProt P10721, D816H, cells depend on it, form not given); assay: as above; assay type: cell-based; settings: viability after 72 hours
T4 construct: BAF3 FL KIT EX11DEL/D816H
T4 sequence (P10721 with tags, fused parts or gaps DEL557-558/D816H, form open): as the sequence (P10721 with tags, fused parts or gaps DEL557-558) above, with D814H counted along it
Experimental: as §1, §2, §3

[4] = system: gastrointestinal stromal tumors (GIST); settings: third line therapy; cited from earlier work

T1 sequence (P10721 with tags, fused parts or gaps DEL557-558/V654A, form open): as the sequence (P10721 with tags, fused parts or gaps DEL557-558) above, with V652A counted along it

| SMILES | GI50 [1] [nM] | GI50 (BAF3 FL KIT EX11DEL) [nM] | GI50 [2] [nM] | GI50 [3] [nM] | ORR [4] [%] | median PFS [4] [months] |
| --- | --- | --- | --- | --- | --- | --- |
| COCCN(C)C(=O)Nc1ncc(C#Cc2cc(C(=O)Nc3cccc(C(F)(F)F)c3OC)ccc2C)s1 [I-47, N-(2-methoxy-3-(trifluoromethyl)phenyl)-3-((2-(3-(2-methoxyethyl)-3-methylureido)thiazol-5-yl)ethynyl)-4-methylbenzamide] | 10 to 50 | < 10 | 100 to 10000 | 10 to 50 | – | – |
| COCCN(C)C(=O)Nc1ncc(C#Cc2cc(C(=O)Nc3ccc(C#N)c(C(F)(F)F)c3)ccc2C)s1 [I-48, N-(4-cyano-3-(trifluoromethyl)phenyl)-3-((2-(3-(2-methoxyethyl)-3-methylureido)thiazol-5-yl)ethynyl)-4-methylbenzamide] | 50 to 100 | < 10 | 10 to 50 | 10 to 50 | – | – |
| Cc1ccc(C(=O)Nc2cc(C(F)(F)F)ccn2)cc1C#Cc1cnc(NC(=O)NCC(C)(C)O)s1 [I-15, 3-((2-(3-(2-hydroxy-2-methylpropyl)ureido)thiazol-5-yl)ethynyl)-4-methyl-N-(4-(trifluoromethyl)pyridin-2-yl)benzamide] | 10 to 50 | < 10 | 10 to 50 | 10 to 50 | – | – |
| Cc1ccc(C(=O)Nc2cc(C(F)(F)F)ccn2)cc1C#Cc1cnc(NC(=O)N(C)C2CCN(C)CC2)s1 [I-29, 4-methyl-3-((2-(3-methyl-3-(1-methylpiperidin-4-yl)ureido)thiazol-5-yl)ethynyl)-N-(4-(trifluoromethyl)pyridin-2-yl)benzamide] | 10 to 50 | < 10 | < 10 | < 10 | – | – |
| Cc1ccc(C(=O)Nc2cc(C(F)(F)F)ccn2)cc1C#Cc1cnc(NC(=O)N2CCC(N(C)C)C2)s1 (stereo not shown) [I-40, 3-(dimethylamino)-N-(5-((2-methyl-5-((4-(trifluoromethyl)pyridin-2-yl)carbamoyl)phenyl)ethynyl)thiazol-2-yl)pyrrolidine-1-carboxamide] | 10 to 50 | < 10 | < 10 | 10 to 50 | – | – |
| Cc1ccc(C(=O)Nc2cc(C(F)(F)F)ccn2)cc1C#Cc1cnc(NC(=O)NCc2ccncc2)s1 [I-26, 4-methyl-3-((2-(3-(pyridin-4-ylmethyl)ureido)thiazol-5-yl)ethynyl)-N-(4-(trifluoromethyl)pyridin-2-yl)benzamide] | 10 to 50 | 10 to 50 | 10 to 50 | 10 to 50 | – | – |
| Cc1ccc(C(=O)Nc2cc(C(F)(F)F)ccn2)cc1C#Cc1cnc(NC(=O)N2CCN(C)CC2)s1 [I-23, 4-methyl-N-(5-((2-methyl-5-((4-(trifluoromethyl)pyridin-2-yl)carbamoyl)phenyl)ethynyl)thiazol-2-yl)piperazine-1-carboxamide] | 10 to 50 | < 10 | < 10 | 10 to 50 | – | – |
| Cc1ccc(C(=O)Nc2cc(C(F)(F)F)ccn2)cc1C#Cc1cnc(NC(=O)N(C)C)s1 [I-1, 3-((2-(3,3-dimethylureido)thiazol-5-yl)ethynyl)-4-methyl-N-(4-(trifluoromethyl)pyridin-2-yl)benzamide] | < 10 | < 10 | < 10 | < 10 | – | – |
| CC(=O)Nc1ncc(C#Cc2cc(C(=O)Nc3cc(C(F)(F)F)ccn3)ccc2C)s1 [I-51, 3-((2-acetamidothiazol-5-yl)ethynyl)-4-methyl-N-(4-(trifluoromethyl)pyridin-2-yl)benzamide] | 10 to 50 | < 10 | 10 to 50 | 10 to 50 | – | – |
| Cc1ccc(C(=O)Nc2cc(C(F)(F)F)ccn2)cc1C#Cc1cnc(NC(=O)NCCCN)s1 [I-36, 3-((2-(3-(3-aminopropyl)ureido)thiazol-5-yl)ethynyl)-4-methyl-N-(4-(trifluoromethyl)pyridin-2-yl)benzamide] | 10 to 50 | < 10 | 10 to 50 | 10 to 50 | – | – |
| Cc1ccc(C(=O)Nc2cc(C(F)(F)F)ccn2)cc1C#Cc1cnc(NC(=O)N2CCC(N3CCN(C)CC3)CC2)s1 [I-41, N-(5-((2-methyl-5-((4-(trifluoromethyl)pyridin-2-yl)carbamoyl)phenyl)ethynyl)thiazol-2-yl)-4-(4-methylpiperazin-1-yl)piperidine-1-carboxamide] | 10 to 50 | < 10 | 10 to 50 | 10 to 50 | – | – |
| COCCNC(=O)Nc1ncc(C#Cc2cc(C(=O)Nc3cc(C(F)(F)F)ccn3)ccc2C)s1 [I-5, 3-((2-(3-(2-methoxyethyl)ureido)thiazol-5-yl)ethynyl)-4-methyl-N-(4-(trifluoromethyl)pyridin-2-yl)benzamide] | 10 to 50 | < 10 | 10 to 50 | 10 to 50 | – | – |
| Cc1ccc(C(=O)Nc2cc(C(F)(F)F)ccn2)cc1C#Cc1cnc(NC(=O)N(C)CCN2CCN(C)CC2)s1 [I-16, 4-methyl-3-((2-(3-methyl-3-(2-(4-methylpiperazin-1-yl)ethyl)ureido)thiazol-5-yl)ethynyl)-N-(4-(trifluoromethyl)pyridin-2-yl)benzamide] | 10 to 50 | < 10 | < 10 | 10 to 50 | – | – |
| Cc1ccc(C(=O)Nc2cc(C(F)(F)F)ccn2)cc1C#Cc1cnc(NC(=O)N(C)CCO)s1 [I-10, 3-((2-(3-(2-hydroxyethyl)-3-methylureido)thiazol-5-yl)ethynyl)-4-methyl-N-(4-(trifluoromethyl)pyridin-2-yl)benzamide] | < 10 | < 10 | < 10 | < 10 | – | – |
| CNC(=O)c1cc(Oc2ccc(NC(=O)Nc3ccc(Cl)c(C(F)(F)F)c3)c(F)c2)ccn1 [Regorafenib] | – | – | – | – | 4.5 | 4.8 |
| Cc1ccc(C(=O)Nc2cc(C(F)(F)F)ccn2)cc1C#Cc1cnc(NC(=O)C2CC2)s1 [I-49, 3-((2-(cyclopropanecarboxamido)thiazol-5-yl)ethynyl)-4-methyl-N-(4-(trifluoromethyl)pyridin-2-yl)benzamide] | 10 to 50 | < 10 | 10 to 50 | 10 to 50 | – | – |
| COCCN(C)C(=O)Nc1ncc(C#Cc2cc(NC(=O)c3cc(C(F)(F)F)ccn3)ccc2F)s1 [I-62, N-(4-fluoro-3-((2-(3-(2-methoxyethyl)-3-methylureido)thiazol-5-yl)ethynyl)phenyl)-4-(trifluoromethyl)picolinamide] | 10 to 50 | < 10 | < 10 | 10 to 50 | – | – |
| CCN(CC)CCN(C)C(=O)Nc1ncc(C#Cc2cc(NC(=O)c3cc(C(F)(F)F)ccn3)ccc2C)s1 [I-59, N-(3-((2-(3-(2-(diethylamino)ethyl)-3-methylureido)thiazol-5-yl)ethynyl)-4-methylphenyl)-4-(trifluoromethyl)picolinamide] | 100 to 10000 | 10 to 50 | 100 to 10000 | 50 to 100 | – | – |
| Cc1ccc(C(=O)Nc2cc(C(F)(F)F)ccn2)cc1C#Cc1cnc(NC(=O)N(C)CC2CCCN2C)s1 (stereo not shown) [I-20, 4-methyl-3-((2-(3-methyl-3-((1-methylpyrrolidin-2-yl)methyl)ureido)thiazol-5-yl)ethynyl)-N-(4-(trifluoromethyl)pyridin-2-yl)benzamide] | 10 to 50 | < 10 | 10 to 50 | 10 to 50 | – | – |
| Cc1ccc(C(=O)Nc2cc(C(F)(F)F)ccn2)cc1C#Cc1cnc(NC(=O)N(C)CC(C)(C)O)s1 [I-21, 3-((2-(3-(2-hydroxy-2-methylpropyl)-3-methylureido)thiazol-5-yl)ethynyl)-4-methyl-N-(4-(trifluoromethyl)pyridin-2-yl)benzamide] | 10 to 50 | < 10 | 10 to 50 | 10 to 50 | – | – |
| Cc1ccc(C(=O)Nc2cc(C(F)(F)F)ccn2)cc1C#Cc1cnc(NC(=O)N2CCOC(CN(C)C)C2)s1 (stereo not shown) [I-34, 2-((dimethylamino)methyl)-N-(5-((2-methyl-5-((4-(trifluoromethyl)pyridin-2-yl)carbamoyl)phenyl)ethynyl)thiazol-2-yl)morpholine-4-carboxamide] | 10 to 50 | < 10 | 10 to 50 | 10 to 50 | – | – |
